Experimental data reported in patent publication US9073918B2, “Pyrazolo[4,3-b]pyridine-7-amine inhibitors of ALK5” (Takeda Pharmaceutical Company Limited, priority 2010, dated 2015).

What was measured:
cellular TGF-β R1 ALK5 = target: T1, cellular TGF-β R1 ALK5 (Homo sapiens, UniProt P36897); assay: Cellular inhibition of ALK5 (CellSensor SBE-bla HEK 293T beta-lactamase reporter); type: cell-based; details: cellular inhibition of ALK5, SBE-bla HEK 293T cells, TGFb-1 stimulated 5 hours; average where measured in multiple experiments
T1 construct: host or cells: CellSensor SBE-bla HEK 293T
T1 sequence (P36897 34-503): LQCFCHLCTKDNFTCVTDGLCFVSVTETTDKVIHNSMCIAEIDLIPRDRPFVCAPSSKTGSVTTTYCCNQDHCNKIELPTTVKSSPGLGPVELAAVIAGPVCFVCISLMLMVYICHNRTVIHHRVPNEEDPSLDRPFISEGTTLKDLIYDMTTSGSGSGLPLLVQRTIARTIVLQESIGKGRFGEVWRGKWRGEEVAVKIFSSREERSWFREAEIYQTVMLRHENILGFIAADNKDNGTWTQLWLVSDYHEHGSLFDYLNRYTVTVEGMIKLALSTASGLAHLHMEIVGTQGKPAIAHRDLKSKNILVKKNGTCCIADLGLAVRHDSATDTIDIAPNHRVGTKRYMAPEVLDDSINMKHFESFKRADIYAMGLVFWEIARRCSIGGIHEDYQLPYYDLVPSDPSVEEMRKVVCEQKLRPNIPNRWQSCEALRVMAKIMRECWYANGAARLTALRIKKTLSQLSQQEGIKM
Method in brief: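 pIC50 derives from non-linear fitting of percent inhibition of the 460/530 nm CCF4-AM emission ratio, relative to DMSO+TGF-β wells. HEK 293T SBE-bla cells received compound (0.5% DMSO) for 1 h, TGFb-1 (100 ng/mL stock) for 5 h at 37 °C, then substrate 2 h at RT.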

TGF-β R1 ALK5 = target: T2, TGF-β R1 ALK5 (Homo sapiens, UniProt P36897); assay: In vitro inhibition of ALK5 (LanthaScreen activity assay, TR-FRET); type: biochemical
T2 construct: purchased Invitrogen PV5837
T2 sequence (P36897 34-503): T1 sequence (P36897 34-503)

| SMILES | IC50 (cellular TGF-β R1 ALK5) [nM] | IC50 (TGF-β R1 ALK5) [nM] |
| --- | --- | --- |
| Cc1ccc(F)c(-c2cc(Nc3ccnc4cn(CCC(C)(C)O)nc34)c(C)cn2)n1 [Example 120, 4-(7-(3′-fluoro-5,6′-dimethyl-2,2′-bipyridin-4-ylamino)-2H-pyrazolo[4,3-b]pyridin-2-yl)-2-methylbutan-2-ol] | 200 | 20 |
| Cc1ccc(F)c(-c2cc(Nc3ccnc4cn(C5CC5)nc34)ccn2)n1 [Example 121, 2-cyclopropyl-N-(3′-fluoro-6′-methyl-2,2′-bipyridin-4-yl)-2H-pyrazolo[4,3-b]pyridin-7-amine] | 12.6 | 3.16 |
| Cc1ccc(F)c(-c2cc(Nc3ccnc4cn(C5CC5)nc34)c(C)cn2)n1 [Example 122, 2-cyclopropyl-N-(3′-fluoro-5,6′-dimethyl-2,2′-bipyridin-4-yl)-2H-pyrazolo[4,3-b]pyridin-7-amine] | 10 | 2 |
| Cc1ccc(F)c(-c2cc(Nc3ccnc4cnn(C)c34)c(C)cn2)n1 [Example 124, N-(3′-fluoro-5,6′-dimethyl-2,2′-bipyridin-4-yl)-1-methyl-1H-pyrazolo[4,3-b]pyridin-7-amine] | 6.31 | 3.98 |
| CCn1cc2nccc(Nc3ccnc(-c4nc(C)ccc4F)c3)c2n1 [Example 125, 2-ethyl-N-(3′-fluoro-6′-methyl-2,2′-bipyridin-4-yl)-2H-pyrazolo[4,3-b]pyridin-7-amine] | 39.8 | 15.8 |
| CCn1cc2nccc(Nc3cc(-c4nc(C)ccc4F)ncc3C)c2n1 [Example 126, 2-ethyl-N-(3′-fluoro-5,6′-dimethyl-2,2′-bipyridin-4-yl)-2H-pyrazolo[4,3-b]pyridin-7-amine] | 15.8 | 10 |
| CCn1ncc2nccc(Nc3ccnc(-c4nc(C)ccc4F)c3)c21 [Example 127, 1-ethyl-N-(3′-fluoro-6′-methyl-2,2′-bipyridin-4-yl)-1H-pyrazolo[4,3-b]pyridin-7-amine] | 31.6 | 7.94 |
| Cc1cnc(-c2cc(Cl)ccc2F)cc1Nc1ccnc2cn(C)nc12 [Example 128, N-(2-(5-chloro-2-fluorophenyl)-5-methylpyridin-4-yl)-2-methyl-2H-pyrazolo[4,3-b]pyridin-7-amine] | 25.1 | 6.31 |
| Cc1ccc(F)c(-c2cc(Nc3ccnc4cn(CCF)nc34)c(C)cn2)n1 [Example 129, N-(3′-fluoro-5,6′-dimethyl-2,2′-bipyridin-4-yl)-2-(2-fluoroethyl)-2H-pyrazolo[4,3-b]pyridin-7-amine] | 15.8 | 6.31 |
| Cc1ccc(F)c(-c2cc(Nc3ccnc4cnn(CCF)c34)c(C)cn2)n1 [Example 130, N-(3′-fluoro-5,6′-dimethyl-2,2′-bipyridin-4-yl)-1-(2-fluoroethyl)-1H-pyrazolo[4,3-b]pyridin-7-amine] | 20 | 3.98 |
| Cc1ccc(F)c(-c2cc(Nc3c(F)cnc4cn(C)nc34)c(C)cn2)n1 [Example 131, 6-fluoro-N-(3′-fluoro-5,6′-dimethyl-2,2′-bipyridin-4-yl)-2-methyl-2H-pyrazolo[4,3-b]pyridin-7-amine] | 10 | 3.16 |
| Cc1ccc(F)c(-c2cc(Nc3c(F)cnc4cnn(C)c34)c(C)cn2)n1 [Example 132, 6-fluoro-N-(3′-fluoro-5,6′-dimethyl-2,2′-bipyridin-4-yl)-1-methyl-1H-pyrazolo[4,3-b]pyridin-7-amine] | 126 | 63.1 |
| Cc1ccc(F)c(-c2cc(Nc3ccnc4cnn(C5CC5)c34)ccn2)n1 [Example 133, 1-cyclopropyl-N-(3′-fluoro-6′-methyl-2,2′-bipyridin-4-yl)-1H-pyrazolo[4,3-b]pyridin-7-amine] | 31.6 | 5.01 |

Other lines, results leading:

| IC50 (cellular TGF-β R1 ALK5) [nM] | IC50 (TGF-β R1 ALK5) [nM] | SMILES |
| --- | --- | --- |
| 50.1 | 2 | CCn1ncc2nccc(Nc3cc(-c4nc(C)ccc4F)ncc3C)c21 [Example 134, 1-ethyl-N-(3′-fluoro-5,6′-dimethyl-2,2′-bipyridin-4-yl)-1H-pyrazolo[4,3-b]pyridin-7-amine] |
| 50.1 | 15.8 | Cc1ccc(F)c(-c2cc(Nc3ccnc4cnn(CCC(C)(C)O)c34)ccn2)n1 [Example 135, 4-(7-(3′-fluoro-6′-methyl-2,2′-bipyridin-4-ylamino)-1H-pyrazolo[4,3-b]pyridin-1-yl)-2-methylbutan-2-ol] |
| 79.4 | 6.31 | Cc1ccc(F)c(-c2cc(Nc3ccnc4cn([C@@H]5CCOC5)nc34)c(C)cn2)n1 [Example 136, (R)—N-(3′-fluoro-5,6′-dimethyl-2,2′-bipyridin-4-yl)-2-(tetrahydrofuran-3-yl)-2H-pyrazolo[4,3-b]pyridin-7-amine] |
| 79.4 | 20 | Cc1ccc(F)c(-c2cc(Nc3ccnc4cnn([C@@H]5CCOC5)c34)c(C)cn2)n1 [Example 137, (R)—N-(3′-fluoro-5,6′-dimethyl-2,2′-bipyridin-4-yl)-1-(tetrahydrofuran-3-yl)-1H-pyrazolo[4,3-b]pyridin-7-amine] |
| 15.8 | 7.94 | CCn1cc2ncc(F)c(Nc3cc(-c4nc(C)ccc4F)ncc3C)c2n1 [Example 138, 2-ethyl-6-fluoro-N-(3′-fluoro-5,6′-dimethyl-2,2′-bipyridin-4-yl)-2H-pyrazolo[4,3-b]pyridin-7-amine] |
| 126 | 25.1 | CCn1ncc2ncc(F)c(Nc3cc(-c4nc(C)ccc4F)ncc3C)c21 [Example 139, 1-ethyl-6-fluoro-N-(3′-fluoro-5,6′-dimethyl-2,2′-bipyridin-4-yl)-1H-pyrazolo[4,3-b]pyridin-7-amine] |
| 50.1 | 7.94 | Cc1ccc(F)c(-c2cc(Nc3ccnc4cn([C@H]5CCOC5)nc34)c(C)cn2)n1 [Example 140, (S)—N-(3′-fluoro-5,6′-dimethyl-2,2′-bipyridin-4-yl)-2-(tetrahydrofuran-3-yl)-2H-pyrazolo[4,3-b]pyridin-7-amine] |
| 158 | 25.1 | Cc1ccc(F)c(-c2cc(Nc3ccnc4cnn([C@H]5CCOC5)c34)c(C)cn2)n1 [Example 141, (S)—N-(3′-fluoro-5,6′-dimethyl-2,2′-bipyridin-4-yl)-1-(tetrahydrofuran-3-yl)-1H-pyrazolo[4,3-b]pyridin-7-amine] |
| 158 | 25.1 | Cc1cnc(-c2cc(F)ccc2F)cc1Nc1ccnc2cn(CCC(C)(C)O)nc12 [Example 142, 4-(7-(2-(2,5-difluorophenyl)-5-methylpyridin-4-ylamino)-2H-pyrazolo[4,3-b]pyridin-2-yl)-2-methylbutan-2-ol] |
| 126 | 20 | Cc1cnc(-c2cc(F)ccc2F)cc1Nc1ccnc2cn(CC(C)O)nc12 (centres unmarked) [Example 143, 1-(7-(2-(2,5-difluorophenyl)-5-methylpyridin-4-ylamino)-2H-pyrazolo[4,3-b]pyridin-2-yl)propan-2-ol] |
| 20 | 2.51 | Cc1cnc(-c2cc(F)ccc2F)cc1Nc1ccnc2cnn(CC(C)O)c12 (centres unmarked) [Example 144, 1-(7-(2-(2,5-difluorophenyl)-5-methylpyridin-4-ylamino)-1H-pyrazolo[4,3-b]pyridin-1-yl)propan-2-ol] |
| 126 | 15.8 | CNC(=O)Cn1ncc2nccc(Nc3cc(-c4nc(C)ccc4F)ncc3C)c21 [Example 145, 2-(7-(3′-fluoro-5,6′-dimethyl-2,2′-bipyridin-4-ylamino)-1H-pyrazolo[4,3-b]pyridin-1-yl)-N-methylacetamide] |
| 501 | 31.6 | CNC(=O)Cn1cc2nccc(Nc3cc(-c4nc(C)ccc4F)ncc3C)c2n1 [Example 146, 2-(7-(3′-fluoro-5,6′-dimethyl-2,2′-bipyridin-4-ylamino)-2H-pyrazolo[4,3-b]pyridin-2-yl)-N-methylacetamide] |
| 200 | 31.6 | CNC(=O)Cn1cc2ncc(F)c(Nc3cc(-c4nc(C)ccc4F)ncc3C)c2n1 [Example 147, 2-(6-fluoro-7-(3′-fluoro-5,6′-dimethyl-2,2′-bipyridin-4-ylamino)-2H-pyrazolo[4,3-b]pyridin-2-yl)-N-methylacetamide] |
| 1000 | 200 | CNC(=O)Cn1ncc2ncc(F)c(Nc3cc(-c4nc(C)ccc4F)ncc3C)c21 [Example 148, 2-(6-fluoro-7-(3′-fluoro-5,6′-dimethyl-2,2′-bipyridin-4-ylamino)-1H-pyrazolo[4,3-b]pyridin-1-yl)-N-methylacetamide] |
| 79.4 | 6.31 | Cc1ccc(F)c(-c2cc(Nc3ccnc4cn(C[C@H](C)O)nc34)c(C)cn2)n1 [Example 149, (S)-1-(7-(3′-fluoro-5,6′-dimethyl-2,2′-bipyridin-4-ylamino)-2H-pyrazolo[4,3-b]pyridin-2-yl)propan-2-ol] |
| 158 | 7.94 | Cc1ccc(F)c(-c2cc(Nc3ccnc4cn(C[C@@H](C)O)nc34)c(C)cn2)n1 [Example 150, (R)-1-(7-(3′-fluoro-5,6′-dimethyl-2,2′-bipyridin-4-ylamino)-2H-pyrazolo[4,3-b]pyridin-2-yl)propan-2-ol] |
| 63.1 | 6.31 | Cc1ccc(F)c(-c2cc(Nc3ccnc4cnn(C[C@@H](C)O)c34)c(C)cn2)n1 [Example 151, (R)-1-(7-(3′-fluoro-5,6′-dimethyl-2,2′-bipyridin-4-ylamino)-1H-pyrazolo[4,3-b]pyridin-1-yl)propan-2-ol] |
